Patent US9040526B2, “Benzylpyrrolidinone derivatives as modulators of chemokine receptor activity” (Bristol-Myers Squibb Company, priority 2010, dated 2015)
pKi: −log10 of the molar value.

Molecular target: T1, CCR2 receptor (Homo sapiens, UniProt P41597)
T1 construct: THP-1 human monocytic leukemic cell line, which expresses endogenous CCR2; endogenous in cells; host or cells: THP-1 human monocytic leukemic cell line (whole cells)
T1 sequence (P41597 1-360 isoform P41597-2): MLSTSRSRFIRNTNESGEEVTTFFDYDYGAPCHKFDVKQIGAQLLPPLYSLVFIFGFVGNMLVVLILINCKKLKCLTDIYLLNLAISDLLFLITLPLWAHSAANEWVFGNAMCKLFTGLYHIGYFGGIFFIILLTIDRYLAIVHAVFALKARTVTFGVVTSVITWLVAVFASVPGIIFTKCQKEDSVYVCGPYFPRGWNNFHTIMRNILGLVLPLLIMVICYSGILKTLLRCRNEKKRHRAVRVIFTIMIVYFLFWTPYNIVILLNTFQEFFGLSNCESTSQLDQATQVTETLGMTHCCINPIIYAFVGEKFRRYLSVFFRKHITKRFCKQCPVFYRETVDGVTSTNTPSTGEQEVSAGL
Experiment: THP-1 monocytic cell binding: whole cell-based radioligand competition assay (125I-human MCP-1)
Details: THP-1 cells expressing endogenous CCR2; 125I-MCP-1 tracer 0.2 nM; n = 1 unless otherwise noted
Protocol: THP-1 Monocytic Cell Binding: Whole Cell-Based Assay
The human CCR2 binding assay was also established with the THP-1 human monocytic leukemic cell line, which expresses endogenous CCR2, using ^125I-human MCP-1 as the tracer ligand. Radioligand competition binding assays were used for assessment of binding affinity of test compounds to the CCR2 receptor. For radioligand competition studies, 100 μl containing 2.5×10^5 THP-1 cells/well (in assay buffer containing 50 mM HEPES, pH7.4, 5 mM MgCl2, 1 mM CaCl2 and 0.5% BSA) were added to 96-well assay plates containing the test compounds in 3-fold serial dilution, with final concentrations ranging from 5 μM to 100 pM. Subsequently, 50 μl ^125I-MCP-1 radioligand at a final concentration of 0.2 nM in assay buffer were added to the reaction. After a 90 minute incubation period at room temperature, the binding reaction was terminated by harvesting on GF/B filter plates (PerkinElmer Cat. No. 6005177) followed by washing with ice-cold wash buffer (50 mM HEPES, pH 7.4, 0.1% BSA, 0.5 M NaCl) to remove unbound ligand. After washing, the plate was dried for 45 minutes at 60° C. followed by addition of 40 μl MicroScint 20 scintillation fluid, sealed and analyzed by the Packard TopCount reader. Non-specific binding was determined in the presence of 10 μM (a molar excess of 5000 fold) of an in-house CCR2 small molecule antagonist (CCR2 IC50=2 nM). Specific binding of ^125I-MCP-1 was calculated as the difference between total and non-specific binding. The competition data was plotted as a percentage inhibition of radioligand specific bound in the absence of test compound (percent of total signal). After correcting for non-specific binding, IC50 values were determined. The IC50 is defined as the concentration of test compound required to reduce ^125-MCP-1 specific binding by 50% and was calculated using the four parameter logistic equation to fit the normalized data.
Compounds of the present invention were tested in the THP-1 monocytic binding assay described above and the results shown in Table 3 below were obtained.

pKi	Structure (SMILES)
6.19	CC(C)C1(CCNC2CCC(O)CC2)CC2Oc3ccc(C(F)(F)F)cc3CN2C1=O (mixture of isomers) [Example 3i, 2-(2-((1r,4r)-4-hydroxycyclohexylamino)ethyl)-2-isopropyl-7-(trifluoromethyl)-2,3,3a,9-tetrahydro-1H-benzo[e] pyrrolo[2,1-b][1,3]oxazin-1-one]
6.03	CC(C)C1(CCN2CCC(c3ccccc3)CC2)CC2Oc3ccc(C(F)(F)F)cc3CN2C1=O (single isomer, unassigned) [3b, diastereomer 1]
7.42	CC(C)C1(CCN2CCC(c3ccccc3)CC2)CC2Oc3ccc(C(F)(F)F)cc3CN2C1=O (single isomer, unassigned) [3b, diastereomer 2]
7.34	CC(C)C1(CCN2CCC3(C=Cc4ccccc43)CC2)CC2Oc3ccc(C(F)(F)F)cc3CN2C1=O (single isomer, unassigned) [3f, diastereomer 1]
7.96	CC(C)C1(CCN2CCC3(C=Cc4ccccc43)CC2)CC2Oc3ccc(C(F)(F)F)cc3CN2C1=O (single isomer, unassigned) [3f, diastereomer 2]
6.31	CC(C)C1(CCNC2CCOCC2)CC2Oc3ccc(C(F)(F)F)cc3CN2C1=O (single isomer, unassigned) [3h, diastereomer 2]
6.01	CC(C)C1(CCN2CCCCC2)CCN(Cc2cc(C(F)(F)F)cc(C(F)(F)F)c2)C1=O (stereo not shown) [Example 1a, 1-(3,5-bis(trifluoromethyl)benzyl)-3-isopropyl-3-(2-(piperidin-1-yl)ethyl)pyrrolidin-2-one]
6.03	CC(C)C1(CCN2CCC(c3ccccc3)CC2)CCN(Cc2cc(C(F)(F)F)cc(C(F)(F)F)c2)C1=O (stereo not shown) [Example 1b, 1-(3,5-bis(trifluoromethyl)benzyl)-3-isopropyl-3-(2-(4-phenylpiperidin-1-yl)ethyl)pyrrolidin-2-one]
6.13	CC(C)C1(CCN2CC[C@@]3(C=Cc4ccccc43)[C@@H](C)C2)CCN(Cc2cc(C(F)(F)F)cc(C(F)(F)F)c2)C1=O (stereo partly drawn) [Example 1c, 1-(3,5-bis(trifluoromethyl)benzyl)-3-isopropyl-3-(2-((1R,3′R)-3′-methylspiro[indene-1,4′-piperidine]-1′-yl)ethyl) pyrrolidin-2-one]
5.45	CC(C)C1(CCCN2CCC(c3ccccc3)CC2)CCN(Cc2cc(C(F)(F)F)cc(C(F)(F)F)c2)C1=O (stereo not shown) [Example 2a, 1-(3,5-bis(trifluoromethyl)benzyl)-3-isopropyl-3-(3-(4-phenylpiperidin-1-yl)propyl)pyrrolidin-2-one]
5.60	CC(C)C1(CCNC(C)(C)C)CC2Oc3ccc(C(F)(F)F)cc3CN2C1=O (stereo not shown) [Example 3a, 2-(2-(tert-butylamino)ethyl)-2-isopropyl-7-(trifluoromethyl)-2,3,3,a,9-tetrahydro-1H-benzo[e]pyrrolo[2,1-b][1,3]oxazin-1-one]
5.58	CC(C)C1(CCN2CCC(c3cccc(C(=O)O)c3)CC2)CC2Oc3ccc(C(F)(F)F)cc3CN2C1=O (stereo not shown) [Example 3c, 3-(1-(2-(2-isopropyl-1-oxo-7-(trifluoromethyl)-2,3,3a,9-tetrahydro-1H-benzo[e]pyrrolo[2,1-b][1,3]oxazin-2-yl)ethyl)piperidin-4-yl)benzoic acid]
5.89	CC(C)C1(CCN2CCC(n3c(=O)[nH]c4ccccc43)CC2)CC2Oc3ccc(C(F)(F)F)cc3CN2C1=O (stereo not shown) [Example 3j, 2-isopropyl-2-(2-(4-(2-oxo-2,3-dihydro-1H-benzo[d]imidazol-1-yl)piperidin-1-yl)ethyl)-7-(trifluoromethyl)-2,3,3a,9-tetrahydro-1H-benzo[e]pyrrolo[2,1-b][1,3] oxazin-1-one]
5.85	CC(C)C1(CCN2CCN(c3ccc(F)cc3)CC2)CC2Oc3ccc(C(F)(F)F)cc3CN2C1=O (stereo not shown) [Example 3k, 2-(2-(4-(4-fluorophenyl)piperazin-1-yl)ethyl)-2-isopropyl-7-(trifluoromethyl)-2,3,3a,9-tetrahydro-1H-benzo[e]pyrrolo[2,1-b][1,3] oxazin-1-one]
5.10	CC(C)C1(CCN2CCN(C)CC2)CC2Oc3ccc(C(F)(F)F)cc3CN2C1=O (stereo not shown) [Example 3l, 2-isopropyl-2-(2-(4-methylpiperazin-1-yl)ethyl)-7-(trifluoromethyl)-2,3,3a,9-tetrahydro-1H-benzo[e]pyrrolo[2,1-b][1,3]oxazin-1-one]
6.82	CC(C)C1(CCN2CCC(O)(c3ccccc3)CC2)CC2Oc3ccc(C(F)(F)F)cc3CN2C1=O (stereo not shown) [Example 3m, 2-(2-(4-hydroxy-4-phenylpiperidin-1-yl)ethyl)-2-isopropyl-7-(trifluoromethyl)-2,3,3a,9-tetrahydro-1H-benzo[e]pyrrolo[2,1-b][1,3]oxazin-1-one]
5.83	CC(C)C1(CCN2CCC(Cc3ccccc3)CC2)CC2Oc3ccc(C(F)(F)F)cc3CN2C1=O (stereo not shown) [Example 3n, 2-(2-(4-benzylpiperidin-1-yl)ethyl)-2-isopropyl-7-(trifluoromethyl)-2,3,3a,9-tetrahydro-1H-benzo[e] pyrrolo[2,1-b][1,3]oxazin-1-one]
5.41	CC(C)C1(CCN2CCc3ccccc3C2)CC2Oc3ccc(C(F)(F)F)cc3CN2C1=O (stereo not shown) [Example 3o, 2-(2-(3,4-dihydroisoquinolin-2(1H)-yl)ethyl)-2-isopropyl-7-(trifluoromethyl)-2,3,3a,9-tetrahydro-1H-benzo[e] pyrrolo[2,1-b][1,3]oxazin-1-one]
7.64	CC(C)C1(CCN2CCC(c3ccccc3)C2)CC2Oc3ccc(C(F)(F)F)cc3CN2C1=O (stereo not shown) [Example 3p, 2-isopropyl-2-(2-(3-phenylpyrrolidin-1-yl)ethyl)-7-(trifluoromethyl)-2,3,3a,9-tetrahydro-1H-benzo[e] pyrrolo[2,1-b][1,3] oxazin-1-one]
